# Data published in patent US20260138970A1, “MODULATORS OF THE CALCIUM SIGNALING CASCADE” (FONDAZIONE TELETHON ETS, priority 2022, published 2026).
# How the values were obtained:
# Format in all cases: cell-based
# CCK1 receptor = target: T1, CCK1 receptor (Homo sapiens, UniProt P32238); assay: Fluo-4 Ca2+ assay in Chem-1 cells expressing CCK1 receptor; details: CCK8s 0.25 nM; vs vehicle (DMSO); FIG. 10
# T1 construct: host or cells: Chem-1 cells
# T1 sequence (P32238 1-428): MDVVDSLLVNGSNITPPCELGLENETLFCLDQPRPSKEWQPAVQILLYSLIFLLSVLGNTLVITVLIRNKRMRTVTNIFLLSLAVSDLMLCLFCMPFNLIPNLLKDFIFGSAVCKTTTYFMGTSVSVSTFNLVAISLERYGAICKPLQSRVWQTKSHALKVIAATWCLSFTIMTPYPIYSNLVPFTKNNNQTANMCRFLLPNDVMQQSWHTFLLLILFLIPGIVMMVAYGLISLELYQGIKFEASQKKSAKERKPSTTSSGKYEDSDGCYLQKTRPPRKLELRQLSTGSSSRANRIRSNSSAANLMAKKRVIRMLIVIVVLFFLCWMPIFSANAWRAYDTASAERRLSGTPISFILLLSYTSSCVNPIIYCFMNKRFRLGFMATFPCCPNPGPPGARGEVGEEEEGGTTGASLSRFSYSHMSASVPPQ
# Procedure: Chem-1 cells expressing the CCK1 receptor (HTS184RTA, Merck) were cultured in Dulbecco's MEM/F12 (ECM0090L, EuroClone) with 10% fetal bovine serum, 2 mM L-glutamine, 100 U/ml penicillin and 100 μg/ml streptomycin.
# In a further experimental setting, experiments were performed using as above the FLUOstar Omega (BMG Labtech, Offenburg, Germany) microplate reader equipped with syringe pumps and optical excitation/emission filters optimized for yellow fluorescent protein (YFP) fluorescence (ET500/20× and ET535/30m, respectively; Chroma Technology Corporation). FRT and Chem-1 cells were cultured until confluence in 96-well microplates (cc3603, Corning). Cells were washed 2 times with PBS (150 μl/wash) and then loaded for 1 h at 37° C. with 5 μM Fluo-4/AM (Thermo Fisher Scientific; catalog number: F23917) in PBS containing 10 mM glucose, 0.5 mM sulfinpyrazone, and 1% fetal bovine serum. […] Fluo-4 fluorescence (500 nm excitation, 535 nm emission) was detected every 200 ms for 16-40 s. Two seconds after the start of fluorescence recording, the reader automatically injected 165 μl of a modified PBS containing 136 mM KCl instead of NaCl. […] The Fluo-4 fluorescence increase was quantified using a procedure compiled in Microsoft Excel after background subtraction and normalization for the initial value measured before UTP or CCK8s addition.
# ITPR2 = target: T2, ITPR2 (Homo sapiens, UniProt Q14571); assay: Fluo-4 Ca2+ assay, UTP, HEK293 cells with selective expression of ITPR2 (HEKR2); details: compounds 10 μM; UTP 1 μM; FIG. 2C
# T2 construct: host or cells: HEKR2 (HEK293)
# Procedure: (§1) HEK293 cells totally devoid of ITPR expression (HEK3XKO) or with selective expression of ITPR1 (HEKR1), ITPR2 (HEKR2), or ITPR3 (HEKR3), obtained by selective gene ablation, were purchased from Kerafast (catalog number: EURO30, EURO31, EURO32, EURO33) and cultured in a mixture of Dulbecco's Modified Eagle Medium (DMEM, high glucose version) and Ham's F12 (1:1) and supplemented with 10% fetal bovine serum, 2 mM L-glutamine, 100 U/ml penicillin and 100 μg/ml streptomycin.
# (§2) Experiments were performed using the microplate reader described for the HS-YFP assay. FRT and HEK293 cells were cultured until confluence in 96-well microplates (3603, Corning). Cells were washed 2 times with PBS (150 μl/wash) and then loaded for 1 h at 37° C. with 5 μM Fluo-4/AM (Thermo Fisher Scientific; catalog number: F23917) in PBS containing 10 mM glucose, 0.5 mM sulfinpyrazone, and 1% fetal bovine serum. After loading, cells were washed 2 times with PBS-glucose-sulfinpyrazone (150 μl/wash) and incubated for 20 min at 37° C. with 60 μl of PBS plus 10 mM glucose and 0.5 mM sulfinpyrazone containing compounds of interest at 10 μM final concentration or vehicle. Each well was assayed individually. Fluo-4 fluorescence (500 nm excitation, 535 nm emission) was detected every 200 ms for 16-40 s. Two seconds after the start of fluorescence recording, the reader automatically injected 165 μl of a modified PBS containing 136 mM KCl instead of NaCl. This solution also contained 10 mM glucose, 0.5 mM sulfinpyrazone, and UTP or SLIGR-NH2 (CAS #171436-38-7) at a final concentration that depended on the specific cell type. For UTP we used: 0.25 μM for FRT; 1 μM for HEKR2; 5 μM for HEK3XKO, HEKR1, and HEKR3. For SLIGR-NH2 we used: 10 μM for HEKR1; 4 μM for HEKR2. These concentrations were chosen to elicit ˜20% of maximal effect based on UTP and SLIGR-NH2 dose-response relationships. […] The Fluo-4 fluorescence increase was quantified using a procedure compiled in Microsoft Excel after background subtraction and normalization for the initial value measured before UTP addition.
# [1] = test system: protease-activated receptors; assay: Fluo-4 Ca2+ assay, SLIGR-NH2 stimulus, HEKR1 cells; details: SLIGR-NH2 10 μM; compounds 10 μM; FIG. 5C top
# Procedure: Experiments were performed using the microplate reader described for the HS-YFP assay. FRT and HEK293 cells were cultured until confluence in 96-well microplates (3603, Corning). Cells were washed 2 times with PBS (150 μl/wash) and then loaded for 1 h at 37° C. with 5 μM Fluo-4/AM (Thermo Fisher Scientific; catalog number: F23917) in PBS containing 10 mM glucose, 0.5 mM sulfinpyrazone, and 1% fetal bovine serum. After loading, cells were washed 2 times with PBS-glucose-sulfinpyrazone (150 μl/wash) and incubated for 20 min at 37° C. with 60 μl of PBS plus 10 mM glucose and 0.5 mM sulfinpyrazone containing compounds of interest at 10 μM final concentration or vehicle. Each well was assayed individually. Fluo-4 fluorescence (500 nm excitation, 535 nm emission) was detected every 200 ms for 16-40 s. Two seconds after the start of fluorescence recording, the reader automatically injected 165 μl of a modified PBS containing 136 mM KCl instead of NaCl. This solution also contained 10 mM glucose, 0.5 mM sulfinpyrazone, and UTP or SLIGR-NH2 (CAS #171436-38-7) at a final concentration that depended on the specific cell type. For UTP we used: 0.25 μM for FRT; 1 μM for HEKR2; 5 μM for HEK3XKO, HEKR1, and HEKR3. For SLIGR-NH2 we used: 10 μM for HEKR1; 4 μM for HEKR2. These concentrations were chosen to elicit ˜20% of maximal effect based on UTP and SLIGR-NH2 dose-response relationships. The lower agonist concentrations used for HEKR2 cells, compared to HEKR1 cells, are consistent with the higher affinity of ITPR2 for IP3 (16). The Fluo-4 fluorescence increase was quantified using a procedure compiled in Microsoft Excel after background subtraction and normalization for the initial value measured before UTP addition.
# ITPR3 = target: T3, ITPR3 (Homo sapiens, UniProt Q14573); assay: Fluo-4 Ca2+ assay, UTP, HEK293 cells with selective expression of ITPR3 (HEKR3); details: compounds 10 μM; UTP 5 μM; FIG. 2C
# T3 construct: host or cells: HEKR3 (HEK293)
# T3 sequence (Q14573 whole entry): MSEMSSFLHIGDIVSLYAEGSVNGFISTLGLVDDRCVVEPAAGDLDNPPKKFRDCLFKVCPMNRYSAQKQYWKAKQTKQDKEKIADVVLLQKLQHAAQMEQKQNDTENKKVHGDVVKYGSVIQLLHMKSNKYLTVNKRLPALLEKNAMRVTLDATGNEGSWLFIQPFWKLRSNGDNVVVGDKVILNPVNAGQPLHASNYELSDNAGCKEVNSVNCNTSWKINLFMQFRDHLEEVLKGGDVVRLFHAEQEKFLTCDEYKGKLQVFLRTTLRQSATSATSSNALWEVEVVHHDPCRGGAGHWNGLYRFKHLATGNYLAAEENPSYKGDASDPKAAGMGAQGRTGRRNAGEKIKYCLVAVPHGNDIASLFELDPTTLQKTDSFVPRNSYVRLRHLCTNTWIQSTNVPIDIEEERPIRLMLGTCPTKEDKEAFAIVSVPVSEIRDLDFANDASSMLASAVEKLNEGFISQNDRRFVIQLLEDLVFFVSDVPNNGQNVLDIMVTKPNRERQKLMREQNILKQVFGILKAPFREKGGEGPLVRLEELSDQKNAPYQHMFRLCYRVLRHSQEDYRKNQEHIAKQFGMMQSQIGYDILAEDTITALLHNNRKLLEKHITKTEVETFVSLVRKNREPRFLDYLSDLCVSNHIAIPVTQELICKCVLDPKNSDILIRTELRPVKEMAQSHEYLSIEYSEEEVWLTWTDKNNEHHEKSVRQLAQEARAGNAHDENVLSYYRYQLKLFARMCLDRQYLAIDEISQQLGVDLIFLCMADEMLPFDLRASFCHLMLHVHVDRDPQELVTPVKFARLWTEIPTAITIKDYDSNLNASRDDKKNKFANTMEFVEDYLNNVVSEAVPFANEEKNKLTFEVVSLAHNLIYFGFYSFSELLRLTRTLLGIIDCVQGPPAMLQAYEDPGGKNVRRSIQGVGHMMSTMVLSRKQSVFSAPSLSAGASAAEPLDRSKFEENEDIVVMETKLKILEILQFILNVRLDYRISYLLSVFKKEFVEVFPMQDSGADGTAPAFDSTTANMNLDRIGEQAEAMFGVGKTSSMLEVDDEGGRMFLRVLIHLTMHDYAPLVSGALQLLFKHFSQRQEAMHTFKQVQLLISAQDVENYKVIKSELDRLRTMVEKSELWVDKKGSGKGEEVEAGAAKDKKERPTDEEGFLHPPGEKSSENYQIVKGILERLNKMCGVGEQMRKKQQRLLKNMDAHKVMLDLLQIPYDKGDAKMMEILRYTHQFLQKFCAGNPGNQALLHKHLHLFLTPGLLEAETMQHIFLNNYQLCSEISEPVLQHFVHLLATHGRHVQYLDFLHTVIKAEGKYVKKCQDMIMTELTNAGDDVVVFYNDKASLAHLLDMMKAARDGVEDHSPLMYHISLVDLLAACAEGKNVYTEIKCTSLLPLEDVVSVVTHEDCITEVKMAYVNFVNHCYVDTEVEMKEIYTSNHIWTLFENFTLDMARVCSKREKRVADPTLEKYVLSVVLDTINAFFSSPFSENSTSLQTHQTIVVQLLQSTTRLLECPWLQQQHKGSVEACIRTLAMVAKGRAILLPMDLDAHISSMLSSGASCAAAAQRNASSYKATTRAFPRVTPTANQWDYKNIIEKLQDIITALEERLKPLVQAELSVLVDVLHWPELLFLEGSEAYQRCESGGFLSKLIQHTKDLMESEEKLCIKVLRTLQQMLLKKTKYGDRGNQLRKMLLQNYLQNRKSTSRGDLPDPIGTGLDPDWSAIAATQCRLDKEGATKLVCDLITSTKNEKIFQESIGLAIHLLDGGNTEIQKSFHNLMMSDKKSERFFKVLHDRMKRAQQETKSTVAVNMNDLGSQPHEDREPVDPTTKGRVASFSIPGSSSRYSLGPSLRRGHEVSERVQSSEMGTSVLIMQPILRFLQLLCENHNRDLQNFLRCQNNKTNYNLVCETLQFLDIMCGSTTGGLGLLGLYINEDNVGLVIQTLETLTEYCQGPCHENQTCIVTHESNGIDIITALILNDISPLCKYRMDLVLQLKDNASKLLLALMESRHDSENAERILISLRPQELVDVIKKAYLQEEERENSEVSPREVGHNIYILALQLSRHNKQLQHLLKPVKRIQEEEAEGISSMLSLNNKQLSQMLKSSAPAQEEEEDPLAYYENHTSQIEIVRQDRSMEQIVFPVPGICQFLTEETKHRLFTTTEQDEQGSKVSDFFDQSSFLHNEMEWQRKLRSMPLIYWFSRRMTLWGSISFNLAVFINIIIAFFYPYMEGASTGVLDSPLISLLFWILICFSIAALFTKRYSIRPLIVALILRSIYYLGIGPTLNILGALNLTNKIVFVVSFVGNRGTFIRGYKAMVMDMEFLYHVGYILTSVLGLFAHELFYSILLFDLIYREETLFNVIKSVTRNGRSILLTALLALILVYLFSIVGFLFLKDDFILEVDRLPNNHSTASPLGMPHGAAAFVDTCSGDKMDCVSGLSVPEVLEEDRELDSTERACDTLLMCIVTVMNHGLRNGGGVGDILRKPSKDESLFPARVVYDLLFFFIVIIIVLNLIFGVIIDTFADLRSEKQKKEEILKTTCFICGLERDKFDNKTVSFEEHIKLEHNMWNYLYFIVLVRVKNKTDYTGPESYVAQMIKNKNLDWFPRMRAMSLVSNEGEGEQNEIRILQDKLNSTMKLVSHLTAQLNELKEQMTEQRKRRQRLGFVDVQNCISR
# Procedure: as §1, §2
# ITPR1 = ITPR1 (Homo sapiens, UniProt Q14643); assay: Fluo-4 Ca2+ assay, UTP, HEK293 cells with selective expression of ITPR1 (HEKR1); parameters: host or cells: HEKR1 (HEK293); details: compounds 10 μM; UTP 5 μM; FIG. 2C
# Procedure: as §1, §2
# T267M ITPR1 = target: T4, T267M ITPR1 (Homo sapiens, UniProt Q14643, T267M); assay: Fluo-4 Ca2+ assay, UTP, HEK293 cells with inducible T267M ITPR1; details: UTP 5 μM; compound 10 μM; tetracycline-induced; FIG. 6B-C
# T4 construct: expressed in transfected cells
# Procedure: HEK293 cells stably transfected with tetracycline-inducible expression of wild type or mutant (R269W or T267M) ITPR1, kindly provided by Prof. S. R. Wayne Chen (University of Calgary; ref. 14), were cultured in a mixture of Dulbecco's Modified Eagle Medium (DMEM, high glucose version) and Ham's F12 (1:1) and supplemented with 10% fetal bovine serum, 2 mM L-glutamine, 100 U/ml penicillin and 100 μg/ml streptomycin. Cells were selected with 0.5 mg/ml hygromycin B and induced with 1 μg/ml tetracycline.
# as §2
SMILES,effect on CCK8s-induced Ca2+ mobilization (CCK1 receptor),"potentiation of UTP-elicited Ca2+ increase, ITPR2-only cells (ITPR2)","potentiation of SLIGR-NH2 stimulus (Ca2+ mobilization), HEKR1 cells [1]","potentiation of UTP-elicited Ca2+ increase, ITPR3-only cells (ITPR3)","potentiation of UTP-elicited Ca2+ increase, ITPR1-only cells (ITPR1)","potentiation of Ca2+ mobilization elicited by UTP, T267M mutant (T267M ITPR1)"
"CCc1cc(-c2cc(NCCCOc3ccccc3C)nc(N)n2)n(C)n1 [ARN7149, 6-(3-Ethyl-1-methyl-1H-pyrazol-5-yl)-N^4-(3-(o-tolyloxy)propyl)pyrimidine-2,4-diamine]",lack of activity,always effective,significant inhibition,always effective,always effective,also effective although less than ARN11391
"CCn1nc2c(c1C(=O)Nc1ccccc1OCC1CCCCO1)CCCC2 (centres unmarked) [ARN11391, 2-Ethyl-N-[2-(tetrahydropyran-2-ylmethoxy)phenyl]-4,5,6,7-tetrahydroindazole-3-carboxamide]",–,only effective in cells with ITPR1,effective as potentiators,only effective in cells with ITPR1,effective,marked potentiation
"OCc1ccccc1CN(Cc1ccnc(N2CCCC2)n1)c1ccc(F)cc1 [ARN4550, [2-[[4-Fluoro-N-[(2-pyrrolidin-1-ylpyrimidin-4-yl)methyl]anilino]methyl]phenyl]methanol]",significantly enhanced,always effective,effective as potentiators,always effective,always effective,also effective although less than ARN11391
